# Reference: patent US20240116994A1, “Peptides And Use Thereof For Diagnosing And Treating Antiphospholipid Syndrome” (UNIVERSITE DE GENEVE, priority 2021, published 2024)
# Where no end group is shown, it is not given here. The star is where a group is joined. Biotin = O=C1N[C@H]2[C@H](CS[C@H]2CCCCC(=O)*)N1
# B1: Dom MI: recombinant Domain I-II of β2GP1 (protein)
# chain: GRTCPKPDDLPFSTVVPLKTFYEPGEEITYSCKPGYVSRGGMRKFICPLTGLWPINTLKCTPRVCPFAGILENGAVRYTTFEYPNTISFSCNTGFYLNGADSAKCTEEGKWSPELPVCAP
# Columns and labels:
# [1] = system: aPL from a pool of 13 Human patients; test: Surface plasmon resonance, aPL flown over biotin-peptide-coated SA chip (BIAcore X100); format: binding; settings: for sustained interaction / stability of binding with aPL (shape of SPR curves): stabilization curves
# Experimental: The kinetics and affinity of protein-protein and protein-lipid interactions were determined using a BIAcore X100 instrument. 1 mg/ml of biotin-tagged peptide (ligand) was immobilized using a sensor chip SA (GE Healthcare) surface, whereas aPL from a pool of 13 Human patients were flown as analyte. The first flow cell of the sensor chip was used as a control surface (no protein), whereas the second flow cell was employed as the active surface. A range of dilution of aPL analytes prepared in the same buffer was injected on both flow cell surfaces at a flow rate of 30 μl/min. Association and dissociation times for each protein injection were set at 90 and 120 s, respectively. In all cases, sensorgrams were obtained from three different dilutions of aPL.
# (§1) The de Groot's research group has pointed at the importance of hydrophobic character of the plate during coating of R39-R43 epitope. In order to abrogate of the plate-dependent aPL binding, the Ia-1 and Ib-1 peptides as well as the R39-R43 with a biotin at their N-terminal were synthetized and coated a streptavidin plate. In this configuration, the different peptides are flag oriented in the space preventing any interaction with the plate. It was thus observed that the flag-type orientation of R39-R43-biot leads to 8.52×more interaction with aPL while they show 9.63×more binding for Ib-1-biot presenting the same position. […] The surface plasmon resonance (SPR) technique is used to determine the relative avidity of aPL for R39-R43-biot and Ib-1-biot. The interaction between aPL and immobilized R39-R43-biot or Ib-1-biot is monitored by flowing various concentrations of aPL over a R39-R43-biot- or Ib-1-biot-coated chip surface (FIG. 1C). Through SPR experiments, it appears that aPL avidity for Ib-1-biot presents a resonance unit (RU) of 51.49 at 1/1,000 of dilution and a RU of 27.61 at 1/10,000 of dilution while, at the same dilution, it present a RU of 27.36 and a RU of 17.99 with R39-R43-biot, respectively (FIG. 1C). However, at higher concentrations, the peptides seems to show no differences in the interactions with aPL. […] Considering that IgG valency, it was decided to generate a dimeric Ib-1-biot peptide (Ib-1-biot-2x). This new polypeptide carries thus two optimized epitopes which have the opportunity to interact with two Fab fragment present on aPL. […] At higher concentration, i.e dilution of 1/100, the avidity for dimeric peptide is 28×more than for the monomeric (FIG. 1D).
# It was performed a peptide substitution scan of Ib-1-biot VSRGGMRKKKKPLTG (SEQ ID NO: 6) carrying the optimized epitope Ib-1-biot and based on an exchange of the underlined amino acid positions with the 20 main amino acids. The resulting peptide microarrays contained 140 different peptides. It was observed that the peptide substitution of the position n° 1, 2, 12 and 15 have significant influences on the ability to interact with aPL from patients 1, 2, 3, 4 and, in particular, form the plasma pool. Indeed, the substitution of the position 1, 12 or 15 by an Arginine (R) or a Lysine (K) increases the avidity of the peptide for all aPL from patients. […] In this context, the enhancement relative to Ib-1.0-biot-2x of identified peptides was evaluated (FIG. 2A). […] However, streptavidin being known to produce unspecific binding, it was used the ratio between aPL and a pool of human plasma as control (B/B0) (FIG. 2B, upper panel). This representation therefore allows to distinguish the real levels of interactions. It was then performed a dilution assay from dilution of 1/100 to 1/1,200,000 and it was observed relevant differences between the different identified peptides. By comparison of area under the curve (AUC), it was possible to detect the most prone-interacting peptide with aPL. Thus, the peptide IIa-8.0-biot-2x obtained the higher AUC (FIG. 2B, bottom panel). […]
# [2] = system: aPL (pool from APS patients); test: Determination of aPL by ELISA on coated peptides / biotinylated peptides (custom immunoassay); format: binding, Human; settings: for increase fold mean of aPL interaction relative to β2GP1: ELISA, 1/10 dilution of aPL pool, reference reduced β2GP1 (FIG. 1A)
# Experimental: Determination of aPL by ELISA—MaxiSorp™ 96 well plates (Nunc) or Streptavidin plate (Thermofisher) were coated with 10 μg/ml recombinant domains of β2GP1, peptides or biotinylated-peptide prior to incubation with aPLA. Secondary anti-human antibodies conjugated to IR800CW (Rockland) or HRP were used. Protein- or peptide-bound antibodies were detected and quantified by the Odyssey system (Li-Cor Biosciences) or absorbance in optical densities (OD) was determined at 405 nm (molecular Devices™ Filtermax).
# as §1
# It was performed a peptide substitution scan of Ib-1-biot VSRGGMRKKKKPLTG (SEQ ID NO: 6) carrying the optimized epitope Ib-1-biot and based on an exchange of the underlined amino acid positions with the 20 main amino acids. The resulting peptide microarrays contained 140 different peptides. It was observed that the peptide substitution of the position n° 1, 2, 12 and 15 have significant influences on the ability to interact with aPL from patients 1, 2, 3, 4 and, in particular, form the plasma pool. Indeed, the substitution of the position 1, 12 or 15 by an Arginine (R) or a Lysine (K) increases the avidity of the peptide for all aPL from patients. […] In this context, the enhancement relative to Ib-1.0-biot-2x of identified peptides was evaluated (FIG. 2A). […] However, streptavidin being known to produce unspecific binding, it was used the ratio between aPL and a pool of human plasma as control (B/B0) (FIG. 2B, upper panel). This representation therefore allows to distinguish the real levels of interactions. It was then performed a dilution assay from dilution of 1/100 to 1/1,200,000 and it was observed relevant differences between the different identified peptides. By comparison of area under the curve (AUC), it was possible to detect the most prone-interacting peptide with aPL. Thus, the peptide IIa-8.0-biot-2x obtained the higher AUC (FIG. 2B, bottom panel). To formally quantify the ability of aPL to interact with IIa-8.0-biot-2x, it was monitored by flowing various concentrations of aPL over a IIa-8.0-biot-2x-coated chip surface (FIG. 2C). […] In FIG. 2C, bottom panel, it can be appreciated more precisely the improvement of the quality of interactions. […]
# [3] = system: binding of aPL to IIa-8.0-biot-2x; test: Inhibition experiments: remaining reactivity of pre-treated aPL on IIa-8.0-biot-2x ELISA; parameters: species or system Human; settings: aPL pool sera preincubated 90 min at RT with 1, 10 and 10011 g/ml peptide
# Experimental: To examine the functional ability of IIa-5.0, IIa-7.1, IIa-8.0 peptides and R39-R43 to inhibit the activity of pool of aPL isolated from APS patients, the remaining reactivity of aPL was evaluated for IIa-8.0-biot-2x which had previously been treated with increasing concentration of peptides. […] The flag-type orientation prevents potential interactions with the plate or with itself, particularly in solution. Streptavidin magnetic beads associated with IIa-5.0-biot-2x, IIa-7.1-biot-2x and Ha-8.0-biot-2x peptides have been generated. aPL was treated with increasing concentrations of beads before to measure the remaining binding activity of aPL on IIa-8.0-biot-2x ELISA (FIG. 7C).
# To assess the ability of IIa-5.0-2x, IIa-7.1-2x and IIa-8.0-2x to inhibit in vitro the binding of aPL to IIa-8.0-biot-2x. aPL pool sera were preincubated for 90 min at RT with increasing concentrations (1, 10 and 10011 g/ml) of monomeric, dimeric IIa-5.0, IIa-7.1 and IIa-8.0 peptides and of IIa-5.0-biot-2x, IIa-7.1-biot-2x and IIa-8.0-biot-2x-associated beads (15, 30 and 60 pmol). 120 pmol correspond to the amount of IIa-8.0-biot-2x coated in well of Streptavidin Coated High Capacity Plates 96 well plates (Thermofisher). After the pre-incubation time, the serum was added anti-b2GP1 IgG (anti-IIa-8.0-2x) ELISA according to the protocol.
# [4] = aPL at 1/1,000 of dilution (FIG. 1C)
# [5] = aPL at 1/10,000 of dilution (FIG. 1C)
# [6] = after a dilution of 100× of aPL (1/1,000) (FIG. 1B)
# [7] = streptavidin plate, N-terminal biotin, 1/10 dilution of aPL pool (FIG. 1B)
molecule,measurement,setting,value
Ib-1-biot: monomeric Ib-1 peptide with a biotin at its N-terminal (Biotin-VSRGGMRKKKKPLTG),"resonance unit (RU), aPL avidity",[1]; [4],51.49 RU
same,"resonance unit (RU), aPL avidity",[1]; [5],27.61 RU
same,sustained interaction / stability of binding with aPL (shape of SPR curves),[1],neither R39-R43-biot nor Ib-1-biot have sustained interaction with aPL
same,interaction with aPL of flag-oriented biotinylated peptide versus nude peptide,[2]; [6],4.3 ×
same,interaction with aPL of flag-oriented biotinylated peptide versus nude peptide,[2]; [7],9.63 ×
R39-R43-biot: R39-R43 peptide with a biotin at its N-terminal (Biotin-VSRGGMRKFICPLTG) [reference compound],"resonance unit (RU), aPL avidity",[1]; [4],27.36 RU
same,"resonance unit (RU), aPL avidity",[1]; [5],17.99 RU
same,sustained interaction / stability of binding with aPL (shape of SPR curves),[1],neither R39-R43-biot nor Ib-1-biot have sustained interaction with aPL
same,interaction with aPL of flag-oriented biotinylated peptide versus nude peptide,[2]; [6],2.83 ×
same,interaction with aPL of flag-oriented biotinylated peptide versus nude peptide,[2]; [7],8.52 ×
RSRGGMRKRKKPLTG [IIa-8.0],inhibition of aPL binding to IIa-8.0-biot-2x ELISA by peptide in solution,[3],prevents their further binding to IIa-8.0-biot-2x ELISA
"VSRGGMRKFICPLTG [R39-R43, reference compound]",inhibition of aPL binding to IIa-8.0-biot-2x ELISA by peptide in solution,[3],failed to significantly inhibit
same,increase fold mean of aPL interaction relative to β2GP1,[2],same ability to interact with aPL than β2GP1
"VSRGGMRKFIKPLTG [Ia-1, corresponding to the first substitution scan]",increase fold mean of aPL interaction relative to β2GP1,[2],3.47 fold
"VSRGGMRKKKKPLTG [Ib-1, corresponding to the second substitution scan]",increase fold mean of aPL interaction relative to β2GP1,[2],5.5 fold
VSRGGMRKRKKKKTG [IIa-7.1],inhibition of aPL binding to IIa-8.0-biot-2x ELISA by peptide in solution,[3],prevents their further binding to IIa-8.0-biot-2x ELISA
VSRGGMRKRKKPLTK [IIa-5.0],inhibition of aPL binding to IIa-8.0-biot-2x ELISA by peptide in solution,[3],prevents their further binding to IIa-8.0-biot-2x ELISA
B1,increase fold mean of aPL interaction relative to β2GP1,[2],same ability to interact with aPL than β2GP1
